Consider four molecules from US11408900B2, “Secreted P-glycoprotein is a non-invasive biomarker of chronic rhinosinusitis” (Massachusetts Eye and Ear Infirmary, priority 2016, dated 2022).

One series has as its target P-gp (Homo sapiens, UniProt P08183). Conditions: cited from earlier work.
A further series relates to HSNECCs. The experiment in a line: Epithelial cytokine secretion (IL-6, IL-8, TSLP) by ELISA after exosome exposure with or without Zosuquidar. Format: cell-based, human. As to conditions: 0.625 μM Zosuquidar, CRSwNP relative to control. As to the method:
Control wells were those exposed to vehicle control alone. Following exposure, the media was collected from each well. Cytokine concentrations for TSLP (Thymic Stromal Derived Lymphopoietin), Interleukin (IL)-6, and IL-8 were determined by ELISA according to the manufactures guidelines (eBioscience, San Diego, Calif.). All secreted cytokine concentrations were normalized to total protein concentrations using the Micro BCA Protein Assay Kit (Pierce, Rockford, Ill.).

In series [1] the test system is healthy patient derived epithelial cell cultures (HSNECCs). The experiment in a line: Quantitative fluorescent immunocytochemistry for membranous P-gp (CTCF) after recombinant P-gp exposure. In kind it is cell-based, human. As to conditions: 24 hours. The protocol: (§1) HSNECCs from 7 control patients and 6 CRS patients were grown as previously described^8. Briefly, mucosal samples were washed and digested in Pronase for 90 minutes at 37° C. Cell suspensions were separated from particulate matter by centrifugation and resuspended in bronchial epithelial growth media (BEGM). Cells were plated for 2 hours on standard tissue culture plates to remove contaminating fibroblasts. Cells were then expanded for 3-5 days on human collagen type IV-coated (Collagen from human placenta, Bornstein and Traub Type IV, Sigma Aldrich, St. Louis, Mo.) 75 cm^2 dishes (Corning Life Sciences, Corning, N.Y.). […]
Fluorescent staining intensity was quantified according to previously described techniques^9. Briefly, 20× fields were chosen and images were analyzed in Image J v1.49t. The cells and 3 background areas were circled in Image J using the free hand sections tool and the integrated density, area of selected cell, and mean fluorescence of the backgrounds were measured using the region of interest (ROI) manager. The corrected total cell fluorescence (CTCF) was calculated as the integrated density−(area of selected cell×mean fluorescence of background readings). […]

Series [2] shares this test system. The series is described as follows: Calcein AM P-glycoprotein activity assay after recombinant P-gp exposure. Format: cell-based, human. As to conditions: 24 hours, n=7. As to the method: as §1
A calcein AM assay was performed to determine whether the interpolated P-gp was functional following 24 hours of recombinant P-gp exposure as described above. […] After 15 minutes, each well was washed 3 times with cold phosphate buffered saline and the calcein fluorescence within each well was quantified using a spectrophotometer (Molecular Devices SpectraMax M5, Sunnyvale, Calif.) at an excitation and emission wavelength of 494 nm and 517 nm, respectively. A decrease in fluorescence was considered an indication of increased P-gp function as previously described^4.

Sequence of P-gp (P08183 whole entry): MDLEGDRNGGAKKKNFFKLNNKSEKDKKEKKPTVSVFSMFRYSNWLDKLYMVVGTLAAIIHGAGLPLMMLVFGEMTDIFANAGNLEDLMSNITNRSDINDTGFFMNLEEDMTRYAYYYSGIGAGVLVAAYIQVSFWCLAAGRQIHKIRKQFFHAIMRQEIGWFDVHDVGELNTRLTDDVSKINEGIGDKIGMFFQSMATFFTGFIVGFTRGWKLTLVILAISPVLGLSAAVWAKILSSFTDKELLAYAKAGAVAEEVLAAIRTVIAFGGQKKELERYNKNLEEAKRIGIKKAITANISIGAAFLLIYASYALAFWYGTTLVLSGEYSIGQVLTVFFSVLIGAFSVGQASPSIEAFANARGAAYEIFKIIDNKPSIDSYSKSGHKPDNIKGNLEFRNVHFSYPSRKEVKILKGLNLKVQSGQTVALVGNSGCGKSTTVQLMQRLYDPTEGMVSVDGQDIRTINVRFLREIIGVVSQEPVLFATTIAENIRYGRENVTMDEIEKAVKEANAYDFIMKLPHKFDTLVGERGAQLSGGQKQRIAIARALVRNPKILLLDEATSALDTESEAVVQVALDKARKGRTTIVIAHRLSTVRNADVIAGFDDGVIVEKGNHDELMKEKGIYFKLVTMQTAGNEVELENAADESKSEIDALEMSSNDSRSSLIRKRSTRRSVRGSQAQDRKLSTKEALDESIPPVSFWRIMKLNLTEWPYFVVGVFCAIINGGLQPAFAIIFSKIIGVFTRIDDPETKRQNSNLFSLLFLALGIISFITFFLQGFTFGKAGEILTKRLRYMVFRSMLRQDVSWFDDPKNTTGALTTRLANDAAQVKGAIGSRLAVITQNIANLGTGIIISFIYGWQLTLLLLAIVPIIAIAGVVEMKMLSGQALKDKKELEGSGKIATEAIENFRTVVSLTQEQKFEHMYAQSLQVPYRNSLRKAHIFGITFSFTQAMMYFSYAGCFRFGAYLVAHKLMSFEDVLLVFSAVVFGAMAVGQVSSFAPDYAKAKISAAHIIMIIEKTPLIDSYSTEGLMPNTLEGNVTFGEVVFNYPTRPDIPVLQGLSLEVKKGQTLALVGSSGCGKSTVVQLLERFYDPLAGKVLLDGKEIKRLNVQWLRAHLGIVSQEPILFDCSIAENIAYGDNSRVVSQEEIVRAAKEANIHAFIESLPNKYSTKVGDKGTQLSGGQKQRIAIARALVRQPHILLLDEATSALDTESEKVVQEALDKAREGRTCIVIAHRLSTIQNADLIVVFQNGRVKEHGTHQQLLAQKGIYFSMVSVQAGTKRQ

For the molecule `CCOC/C=C/c1ccc(-c2nc(-c3ccc(NC(C)C)cc3)c(-c3ccc(NC(C)C)cc3)[nH]2)cc1` [OC144093, 4-[2-[4-[(E)-3-ethoxyprop-1-enyl]phenyl]-4-[4-(propan-2-ylamino)phenyl]-1H-imidazol-5-yl]-N-propan-2-ylaniline], the “potency relative to the first and second-generation inhibitors” value on P-gp is “about 10 fold”.
For the molecule `COc1cc2c(cc1OC)CN(CCc1ccc(NC(=O)c3cc(OC)c(OC)cc3NC(=O)c3cnc4ccccc4c3)cc1)CC2` [XR9576, N-[2-[[4-[2-(6,7-Dimethoxy-3,4-dihydro-1H-isoquinolin-2-yl)ethyl]phenyl]carbamoyl]-4,5-dimethoxyphenyl]quinoline-3-carboxamide], the “potency relative to the first and second-generation inhibitors” value at P-gp is “about 10 fold”.
On to `Cl.Cl.Cl.O[C@@H](COc1cccc2ncccc12)CN1CCN([C@@H]2c3ccccc3[C@@H]3[C@H](c4ccccc42)C3(F)F)CC1` [Zosuquidar, (2R)-1-{4-[(1aR,6r,10bS)-1,1-Difluoro-1,1a,6,10b-tetrahydrodibenzo[a,e]cyclopropa[c]cyclohepten-6-yl]piperazin-1-yl}-3-(quinolin-5-yloxy)propan-2-ol,trihydrochloride], for which, in the series on HSNECCs, the “effect on exosome induced increase in IL-6 secretion” value is recorded as “abrogated” and the “effect on exosome induced increase in IL-8 secretion” value is “abrogated”.
With “recombinant human P-gp: recombinant human P-glycoprotein (USCN Life Sciences Inc.)”, the “CTCF (corrected total cell fluorescence) of P-gp staining” value in series [1] (2000 ng/mL recombinant human P-gp, n=7) is 1.34+/−1.85. In addition, the “change in CTCF of P-gp staining” value in series [1] (100-2000 ng/mL exogenous recombinant human P-gp) is “dose dependent increase”. Moreover, the mean calcein fluorescence in series [2] (100 ng/mL dose) is recorded as 123.11+/−42.16; in series [2] (2000 ng/mL dose), 82.03+/−43.69.
